Data as given in patent US6436999B1, “Diacyl-substituted guanidines, a process for their preparation, their use as medicine or diagnostic aid, and medicine containing them” (Hoechst Aktiengesellschaft, priority 1993, dated 2002).
Where a name gives a salt, the structure may show the parent alone.

How the values were obtained:
[1] = molecular target: T1, Na^+/H^+ exchanger of rabbit erythrocytes (Oryctolagus cuniculus, UniProt P23791); test: Inhibition of the Na+/H+ exchanger of rabbit erythrocytes (amiloride-sensitive sodium influx, flame photometry); format: cell-based; settings: hyperosmolar salt/sucrose medium, pH 7.4, 37° C., Na^+ influx by flame photometry
T1 construct: endogenous in cells; host or cells: erythrocytes in whole blood from cholesterol-fed New Zealand White rabbits
T1 sequence (P23791 whole entry): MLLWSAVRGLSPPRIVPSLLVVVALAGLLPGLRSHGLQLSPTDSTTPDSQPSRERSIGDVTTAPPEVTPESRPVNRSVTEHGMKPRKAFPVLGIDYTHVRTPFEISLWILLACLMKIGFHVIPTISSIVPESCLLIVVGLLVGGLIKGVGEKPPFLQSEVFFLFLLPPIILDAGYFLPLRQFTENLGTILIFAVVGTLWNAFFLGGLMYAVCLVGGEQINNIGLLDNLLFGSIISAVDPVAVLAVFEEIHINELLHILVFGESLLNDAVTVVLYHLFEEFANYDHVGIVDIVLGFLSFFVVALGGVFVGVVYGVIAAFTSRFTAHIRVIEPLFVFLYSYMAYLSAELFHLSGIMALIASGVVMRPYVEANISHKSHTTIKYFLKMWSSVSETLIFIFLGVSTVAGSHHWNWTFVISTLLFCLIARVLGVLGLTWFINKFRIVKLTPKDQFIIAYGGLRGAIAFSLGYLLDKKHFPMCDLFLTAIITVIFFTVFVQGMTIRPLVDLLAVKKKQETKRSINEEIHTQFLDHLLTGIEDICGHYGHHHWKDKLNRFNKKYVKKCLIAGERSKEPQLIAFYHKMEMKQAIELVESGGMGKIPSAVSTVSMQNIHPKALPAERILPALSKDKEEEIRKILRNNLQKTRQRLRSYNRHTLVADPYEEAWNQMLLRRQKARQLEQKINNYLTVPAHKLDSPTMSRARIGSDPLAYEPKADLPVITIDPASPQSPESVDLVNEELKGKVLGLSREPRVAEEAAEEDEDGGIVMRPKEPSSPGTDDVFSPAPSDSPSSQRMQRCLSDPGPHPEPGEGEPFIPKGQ
Excerpt: New Zealand White rabbits (Ivanovas) were given a standard diet containing 2% cholesterol for six weeks in order to activate Na^+/H^+ exchange and thus to be able to use flame photometry to determine the Na^+ influx into the erythrocytes via Na^+/H^+ exchange. The blood was removed from the aural arteries and rendered incoagulable by the addition of 25 IU of potassium heparin per ml. One part of each sample was used for the duplicate determination of the hematocrit by centrifugation. Aliquots of in each case 100 μl were employed for measuring the initial content of Na^+ in the erythrocytes.
In order to determine the amiloride-sensitive sodium influx, 100 μl of each blood sample were in each case incubated, at pH 7.4 and 37° C., in 5 ml of a hyperosmolar salt/sucrose medium (mmol/l: 140 NaCl, 3 KCl, 150 sucrose, 0.1 ouabain, 20 tris(hydroxymethyl)aminomethane). The erythrocytes were then washed three times with ice cold MgCl2/ouabain solution (mmol/l: 112 MgCl2, 0.1 ouabain) and hemolyzed in 2.0 ml of distilled water. The intracellular content of sodium was determined by flame photometry.
The nett influx of Na^+ was calculated from the difference between the initial sodium values and the sodium content of the erythrocytes following incubation. The amiloride-inhibitable sodium influx was given by the difference in the sodium content of the erythrocytes following incubation with and without 3×10^−4 mol/l amiloride. The same procedure was also used in the case of the compounds according invention.

Row | Structure (SMILES) | IC50 [1] [nM] | melting point
1 | N=C(NC(=O)c1ccc(F)c(C(F)(F)F)c1)NC(=O)c1ccc(F)c(C(F)(F)F)c1 [Example 2, Bis(4-fluoro-3-trifluoromethylbenzoyl)guanidine] | 10000 | 143 to 145 °C
2 | Cl.N=C(NC(=O)c1ccc(F)c(C(F)(F)F)c1)NC(=O)c1ccc(-n2ccnc2)c(C(F)(F)F)c1 [Example 4, N-[4-(1-Imidazolyl)-3-trifluoromethylbenzoyl]-N′-(4-fluoro-3-trifluoromethylbenzoyl)guanidine Hydrochloride] | 3000 | 217 to 218 °C (dec.)
3 | N=C(NC(=O)CCc1ccccc1C(F)(F)F)NC(=O)CCc1ccccc1C(F)(F)F (as salt: hydrochloride) [Example 7, N,N′-Bis[3-(2-trifluoromethylphenyl)propionyl]guanidide] |  | 75 °C
4 | N=C(NC(=O)C1CCc2ccccc2C1)NC(=O)C1CCc2ccccc2C1 (stereo not shown) [Example 5, N,N′-Bis(1,2,3,4-tetrahydronaphthalene-2-carbonyl)guanidide] | 300 | 99 °C

Further compounds by falling IC50 [1], results first:

Row | IC50 [1] [nM] | melting point | Structure (SMILES)
5 | 10000 | 218 to 221 °C | CC(C)c1ccc(C(=O)NC(=N)NC(=O)c2ccc(C(C)C)c(S(C)(=O)=O)c2)cc1S(C)(=O)=O [Example 1, Bis(3-methylsulfonyl-4-i-propylbenzoyl)guanidine]
6 | 5000 |  | N=C(NC(=O)c1ccc(-n2ccnc2)c(C(F)(F)F)c1)NC(=O)c1ccc(-n2ccnc2)c(C(F)(F)F)c1 [Example 3, Bis[4-(l-imidazolyl)-3-trifluoromethylbenzoyl]guanidine]
7 | 2000 |  | N=C(NC(=O)CCc1ccccc1C(F)(F)F)NC(=O)CCc1ccccc1C(F)(F)F [Example 7, N,N′-Bis[3-(2-trifluoromethylphenyl)propionyl]guanidide]
8 | 1100 |  | C/C(=C\c1ccccc1)C(=O)NC(=N)NC(=O)/C(C)=C/c1ccccc1 [Example 6, N,N′-Bis[(E)-2-methylcinnamoyl]guanidide]
9 | 300 |  | CC(Cc1cc(F)ccc1F)C(=O)NC(=N)NC(=O)C(C)Cc1cc(F)ccc1F (stereo not shown) [Example 8, N,N′-Bis[3-(2,5-difluorophenyl)-2-methylpropionyl]guanidide]
